# Experiment: in vitro
# Details: human, hela cells, % viability
row,Structure (SMILES),"viability at 28.5 h, 10 µM"
1,CSc1ccccc1CNC(=O)c1cc(Br)cnc1N(C)C(C)=O [CBK076478],106%
2,COCCNC(=O)c1cc(-c2ccccc2)cnc1N(C)S(C)(=O)=O [CBK076484],85.8%
3,CS(=O)(=O)Nc1ncc(Br)cc1C(=O)Nc1ccc(C(F)(F)F)cc1 [CBK076485],96.7%
4,CN(C)C(=O)c1cc(-c2ccco2)cnc1NS(C)(=O)=O [CBK076490],116%
5,CCN1CCCC1CNC(=O)c1ccc(-c2ccc(OC)cc2)nc1N(C)C(C)=O (centres unmarked) [CBK076491],98.3%
6,O=C(NC1CCCCC1)c1cc(Br)cnc1NCCCn1ccnc1 [CBK076494],99.7%
7,C=C(C)CNC(=O)c1cc(Br)cnc1N(C)S(C)(=O)=O [CBK076498],94.6%
8,COc1ccc(-c2ccc(C(=O)N(C)C)c(N(C)C(C)=O)n2)cc1 [CBK076500],99.1%
9,CN(C)c1ncc(Br)cc1C(=O)NCCNS(=O)(=O)c1ccccc1 [CBK076504],89.4%
10,CN(c1ncc(-c2ccccc2)cc1C(=O)NCc1ccco1)S(C)(=O)=O [CBK076506],86.3%
11,CN(c1ncc(-c2ccccc2)cc1C(=O)NCc1cccnc1)S(C)(=O)=O [CBK076507],98.9%
12,COc1cccc(-c2ccc(C(=O)Nc3ccc4c(c3)OCO4)c(N3CCOCC3)n2)c1 [CBK076509],93.5%
13,CN(C)CCN(C)C(=O)c1cc(Br)cnc1N1CCN(C(=O)c2ccco2)CC1 [CBK076514],93.8%
14,CC(=O)c1ccccc1-c1cnc(N(C)S(C)(=O)=O)c(C(=O)NCCc2ccccc2)c1 [CBK076516],93.9%
15,Cc1ccc(C(=O)NCC2COc3ccccc3O2)c(N2CCOCC2)n1 (centres unmarked) [CBK076519],106%
16,CCN1CCCC1CNC(=O)c1cc(Br)cnc1N(C)S(C)(=O)=O (centres unmarked) [CBK076520],93.5%
17,CC(=O)N(C)c1ncc(Br)cc1C(=O)NCc1nc2ccccc2[nH]1 [CBK076522],95.9%
18,COc1ccc(-c2cnc(NS(C)(=O)=O)c(C(=O)Nc3cc(C)nn3C)c2)cc1 [CBK076528],88.2%
19,CSc1ccccc1CNC(=O)c1cc(Br)cnc1N(C)S(C)(=O)=O [CBK076529],96.7%
20,CN(c1ncc(Br)cc1C(=O)NC1CCCCC1)S(C)(=O)=O [CBK076531],111%
21,CN(c1ncc(Br)cc1C(=O)Nc1ccc(C(F)(F)F)cc1)S(C)(=O)=O [CBK076542],93.3%
22,CC(=O)N(C)c1ncc(Br)cc1C(=O)NCc1ccc2c(c1)CCO2 [CBK076544],93.5%

row,Structure (SMILES),"viability at 28.5 h, 10 µM"
1,COc1ccc(-c2ccc(C(=O)NCCN3CCOCC3)c(N(C)C(C)=O)n2)cc1 [CBK076545],102%
2,CN1CCN(C(=O)c2ccc(-c3ccccc3)nc2NCCc2ccccn2)CC1 [CBK076550],93.3%
3,O=C(NC1CCCCC1)c1ccc(-c2ccccc2)nc1NCCc1ccccn1 [CBK076553],101%
4,O=C(NCC1COc2ccccc2O1)c1ccc(-c2ccccc2)nc1NCCc1ccccn1 (centres unmarked) [CBK076554],95.9%
5,CC(=O)N(C)c1nc(-c2cccc(N(C)C)c2)ccc1C(=O)N(C)C [CBK076555],92.3%
6,O=C(Nc1ccc2c(c1)OCO2)c1ccc(-c2ccccc2)nc1NCCc1ccccn1 [CBK076574],102%
7,COc1ccc(OCCNC(=O)c2ccc(-c3ccc(C(C)=O)s3)nc2N(C)C(C)=O)cc1 [CBK076576],95.5%
8,CC(=O)c1ccccc1-c1ccc(C(=O)NCCc2ccccn2)c(NCC2CC2)n1 [CBK076580],98.8%
9,CN1CCN(C(=O)c2ccc(-c3cccc(C(=O)NCCO)c3)nc2N(C)C)CC1 [CBK076581],91.8%
10,COc1ccc(OCCNC(=O)c2ccc(-c3cccc(N(C)C)c3)nc2N(C)C(C)=O)cc1 [CBK076587],92.8%
11,COc1ccc2[nH]cc(CCNC(=O)c3ccc(-c4cccc(N(C)C)c4)nc3N(C)C(C)=O)c2c1 [CBK076589],101%
12,CN(C)CCN(C)C(=O)c1ccc(-c2cccc(C(=O)NCCO)c2)nc1N1CCOCC1 [CBK076592],92.5%
13,CC(=O)NCCNC(=O)c1ccc(-c2ccccc2)nc1NCCc1ccccn1 [CBK076595],91.3%
14,COc1ccc2[nH]cc(CCNC(=O)c3cc(-c4cccc(NC(C)=O)c4)cnc3N(C)S(C)(=O)=O)c2c1 [CBK076599],101%
15,CN(C)CCN(C)C(=O)c1ccc(-c2cccc(C(=O)NCCO)c2)nc1NCC1CC1 [CBK076603],94%
16,CC(=O)c1ccc(-c2ccc(C(=O)NCC3COc4ccccc4O3)c(NCc3cccnc3)n2)s1 (centres unmarked) [CBK076608],97.9%
17,NS(=O)(=O)c1ccc(CCNC(=O)c2ccc(-c3ccccc3)nc2NCCc2ccccn2)cc1 [CBK076616],111%
18,C=C(C)CNC(=O)c1cc(-c2cccc(NC(C)=O)c2)cnc1N(C)S(C)(=O)=O [CBK076622],93.9%
19,CC(=O)N(C)c1nc(-c2cccc(N(C)C)c2)ccc1C(=O)Nc1ccc(C(F)(F)F)cc1 [CBK076623],98.5%
20,CC(=O)N(C)c1nc(-c2cccc(N(C)C)c2)ccc1C(=O)NCc1cccnc1 [CBK076639],101%
21,COc1ccc([C@@]23CC[C@@H](NC(=O)c4ccc(SC(F)(F)F)cc4)C[C@@H]2N(C)CC3)cc1OC [CBK076654T],94.9%
22,COc1ccc([C@@]23CC[C@@H](NC(=O)c4ccc(Br)c(C)c4)C[C@@H]2N(C)CC3)cc1OC [CBK076656T],81.2%

row,Structure (SMILES),"viability at 28.5 h, 10 µM"
1,COc1ccccc1-c1nnc(SC)n1-c1ccc(C)cc1 [CBK076670],93.2%
2,CC(C)C1SC(=NC2CC3CCC2C3)N(C)C1=O (centres unmarked) [CBK076727],90.6%
3,CCC1CCCCN1C(=O)c1cc(C)nc(Cl)c1 (centres unmarked) [CBK076748],102%
4,CC(C)CNc1nnc(-c2ccccc2[N+](=O)[O-])s1 [CBK076755],82.1%
5,CN1C[C@H](CNC(=O)Nc2ccc(F)c(F)c2)[C@@H](c2ccc(Cl)c(Cl)c2)C1 [CBK076770],95.7%
6,O=C(O)C1CCN(c2ncnc3scc(-c4ccccc4)c23)CC1 [CBK076784],95.6%
7,O=C(NC(=O)c1ccc(F)c(Cl)c1)Nc1nnc(C(F)(F)F)s1 [CBK076830],88.6%
8,O=C(Nc1nnc(C(F)(F)F)s1)c1ccc(F)c(Cl)c1 [CBK076831],92.2%
9,COc1cc(NC(=O)c2ccco2)c(C(=O)O)cc1OC [CBK076926],91.6%
10,CN1CCN(c2ccc(NS(=O)(=O)c3ccc(Cl)cc3)cc2)CC1 [CBK076932],97.9%
11,c1ncc(OC2CCNC2)nc1OCCN1CCOCC1 (centres unmarked) [CBK077311T],91.2%
12,CC(C)(C)c1ccc(C(=O)CC(C(=O)O)N2CCN(c3cccc(Cl)c3)CC2)cc1 (centres unmarked) [CBK077385],90.9%
13,COc1ccc(/C=C(\NC(C)=O)C(=O)N2CCNCC2)cc1 [CBK077408],90.5%
14,C/C(=N\OCC(=O)N(Cc1ccccc1)c1ccccc1C(=O)O)c1cccs1 [CBK077414],94.2%
15,O=C(O)C1CCCCN1S(=O)(=O)c1ccc(Cl)cc1 (centres unmarked) [CBK077418],91.6%
16,c1cncc(COc2cncc(OC3CCNC3)n2)c1 (centres unmarked) [CBK077419T],94.3%
17,O=C(O)CCCCCNc1ncnc2sc3c(c12)CCCC3 [CBK077446],102%
18,N=C1S/C(=C/c2ccc(-c3ccccc3C(=O)O)o2)C(=O)N1c1nccs1 [CBK077624],93.9%
19,COC(=O)c1cc(NS(=O)(=O)c2cc(Cl)ccc2Cl)cc(C(=O)OC)c1 [CBK077853],105%
20,O=C(O)c1cc(Cl)c2c(c1)[C@@H]1C=CC[C@@H]1[C@H](c1cccc(Br)c1)N2 [CBK077927],106%
21,O=C1Nc2ccccc2/C1=C/c1ccc(-c2cccc(C(=O)O)c2)o1 [CBK077952],89.4%
22,COC(=O)c1ccc(C)c(NS(=O)(=O)c2cc(Cl)ccc2Cl)c1 [CBK077971],90.9%

row,Structure (SMILES),"viability at 28.5 h, 10 µM"
1,O=C(O)c1cc(-c2ccc(/C=C3\NC(=O)N(Cc4ccccc4)C3=O)o2)ccc1Cl [CBK078117],98.9%
2,COc1ccccc1CNc1ccc(C(=O)O)cc1 [CBK078187],106%
3,O=C(Nc1ccccc1C(=O)O)c1ccc(-c2ccc(Cl)cc2Cl)o1 [CBK078453],105%
4,C=CCOc1ccc(Cl)cc1CNc1cccc(C(=O)O)c1 [CBK078460],96.6%
5,O=C(O)CCC(=O)Nc1ccc(N2CCN(CCO)CC2)cc1 [CBK078486],94.5%
6,CCOC(=O)c1sc(-c2ccc(C(C)(C)C)cc2)nc1O [CBK078538],92.3%
7,CCOC(=O)c1sc(-c2c(Cl)cc(C(F)(F)F)cc2Cl)nc1O [CBK078547],114%
8,CC(=O)N1CCc2cc(C)ccc2C12CCN(CCCOc1ccccc1)CC2 [CBK081064],92.4%
9,Cc1ccc2c(c1)CCN(S(C)(=O)=O)C21CCN(CCCOc2ccccc2)CC1 [CBK081066],96.8%
10,CCOC(=O)c1sc(-c2cccc(C)n2)nc1O [CBK081083],84.5%
11,CCC1CCCCN1C(=O)c1ccnc(C)c1 (centres unmarked) [CBK081093],91.3%
12,COc1cc(NC(=O)N[C@@H]2CN(C)C[C@H]2c2ccc(OC)c(OC)c2)cc(OC)c1 [CBK081112],93%
13,CCCc1[nH]nc(O)c1CCc1ccc(OC)cc1OC [CBK081123],95.5%
14,CCCc1[nH]nc(O)c1CCc1ccc(OC)cc1 [CBK081128],102%
15,O=C(O)CCCc1[nH]nc(O)c1Cc1c(Cl)cccc1Cl [CBK081137],105%
16,Cn1c2c(c3ccccc31)CCOC21CCNCC1 [CBK081142],99.3%
17,CCC1CCCCN1C(=O)c1ccc(C(F)(F)F)cc1 (centres unmarked) [CBK081165],107%
18,CSc1ccc(-c2cnc3nc(N)ccc3c2)cc1 [CBK081169],85.2%
19,Nc1cc2cccnc2c(-c2ccc3c(c2)CCO3)n1 [CBK081173],98%
20,COc1cc(F)ccc1-c1nc(N)cc2cccnc12 [CBK081176],88.9%

# Source: publication PMC12040169 (PLOS Biology, 2025)
